Laboratory results reported in patent US11116767B2, “3,5-disubstituted pyrazoles useful as checkpoint kinase 1 (Chk1) inhibitors, and their preparations and applications” (PHARMAENGINE, INC., priority 2016, dated 2021).

Assays:
[1] = test system: LoVo colon cancer xenograft; assay: LoVo colon xenograft model; format: in vivo, Balb/c nude mice
Experimental: (§1) Female Balb/c nude mice at 7-8 weeks of age (Body weights between 17-18g) were purchased from Hunan SJA Laboratory Animal Co., Ltd. HT-29 cells were cultured in DMEM culture medium containing 10% fetal bovine serum and LoVo cells were cultured in RPMI 1640 culture medium containing 10% fetal bovine serum. The cells were harvested and washed with serum free culture medium. Finally, the cells were suspended at a cell density of […] in serum free culture medium for implantation. 5 million cells per animal suspended in 0.1 ml serum free culture medium and 1.1 matrigel were injected into the right flank of the animals after a one, week acclimation period. When average tumor volume reached acceptable tumor size (100-200 mm^3) and shape, the animals were randomly assigned into treatment groups.
Lovo colon cancer cells were implanted to establish the xenograft model in Balb/c nude mice. Compound 3 and LY2606368 were dissolved in 30% SEB-β-CD (Zhiyuan Bio-technology) with 1 molar equivalents of HCl. […]

[2] = Human liver S9 metabolic stability; format: in vitro ADME; settings: for Percentage Remaining %: 1 μM, 37° C.
Experimental: Compounds (1 μM) were incubated with human liver S9 (from BD Gentest) at final liver microsomal protein concentration of 0.5 mg/mL for 0, 5, 15, 30, 45 min at 37° C. The remaining compounds in the reaction were measured by LC-MS/MS. The half-life (T½) 0.693/K (K is the rate constant from a plot of ln [concentration] vs. incubation time).

[3] = Pharmacokinetics study in rats, intravenous; format: in vivo, SD rats; settings: rat, in vivo, iv
Experimental: Compounds were formulated in 30% SEB-β-CD (Zhiyuan Bio-technology) with 1 molar equivalents of HCl (pH adjusted to 3-5). Male SD rats (280-350 g) were purchased from Medical Laboratory Animal Center of Guangdong. Three rats were used for each PK study. […] At various time points after compound administration, approximately 0.2˜0.3 mL of blood was collected by cutting the end of tail into tubes containing K2-EDTA. The plasma was separated via centrifugation and stored at −80° C. A PE Sciex API-3000 LC-MS/MS system (Applied Biosystems, Inc.) was used to analyze compound concentrations in plasma.
PK studies of ChK1 inhibitors were conducted in rats after intravenous administration at 10 mg/kg. […]. […]

[4] = test system: HT-29 colon cancer xenograft; format: in vivo
Experimental: as §1
HT-29 colon cancer cells were implanted to establish the xenograft model in Balb/c nude mice. Compound 3 and LY2606368 were dissolved in 30% SEB-β-CD (Zhiyuan Bio-technology) with 1 molar equivalents of HCl. GDC-575 was suspended in 0.5% methyl cellulose/0.1% Tween 80 in water. […]. The animals well tolerated each treatment in the HT-29 colon cancer in nude mice model.

[5] = molecular target: T1, Chk1 (Homo sapiens, UniProt O14757); assay: biochemical; settings: ADP-Glo; read-out: Chk1 in vitro enzyme activity (grade)
T1 construct: purchased BPS 40039
T1 sequence (O14757 1-476): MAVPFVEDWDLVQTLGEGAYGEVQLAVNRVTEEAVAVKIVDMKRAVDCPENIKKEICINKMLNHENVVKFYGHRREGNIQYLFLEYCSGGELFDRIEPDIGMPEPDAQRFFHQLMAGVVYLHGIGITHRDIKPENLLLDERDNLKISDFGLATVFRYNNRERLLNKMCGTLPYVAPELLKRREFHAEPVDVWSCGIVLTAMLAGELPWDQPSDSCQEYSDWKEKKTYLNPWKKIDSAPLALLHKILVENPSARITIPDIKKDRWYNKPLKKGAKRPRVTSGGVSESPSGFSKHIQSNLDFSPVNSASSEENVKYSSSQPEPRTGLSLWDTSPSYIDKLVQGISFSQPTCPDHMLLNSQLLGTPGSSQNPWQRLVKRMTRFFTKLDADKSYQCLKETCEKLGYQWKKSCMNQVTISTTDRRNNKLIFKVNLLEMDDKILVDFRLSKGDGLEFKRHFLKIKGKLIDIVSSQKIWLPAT

[6] = in vivo; parameters: species or system Balb/c nude mice; settings: mouse, iv, 40 mg/kg
Experimental: as §1
Compound 3 was selected for further PK studies in tumor bearing mice. HT-29 colon cancer cells were implanted to establish the xenograft model in Balb/c nude mice. Twenty-four mice were divided into 8 time groups with n=3/group. Compound 3 was dissolved in 30% SEB-β-CD (Zhiyuan Bio-technology) with 1 molar equivalents of HCl. Each animal was dosed via intravenous administration of Compound 3 at 40 mg/kg. Blood and tumors were collected at various time points after mice were euthanized with CO2. Blood samples were centrifuged at 4° C. immediately after collection. The supernatants were transferred to 1.5 mL of Eppendorf vials as soon as possible and stored at −80° C. in a freezer. Tumor samples were collected and placed in dry ice until transferred to a −80° C. freezer for bioanalysis.

[7] = test system: MDA-MB-231; assay: Cancer cell growth inhibition assay (CellTiter-Glo), MDA-MB-231; format: cell-based, Human; settings: Homo sapiens, MDA-MB-231; 72 hours, cellular ATP content; read-out: MDA-MB-231 anti cell proliferation activity (grade)
Experimental: Human cancer cell lines were purchased from American Type Culture Collection (Manassas, Va.). The trypsinized cells were diluted to required volume at densities of 44,000 cells/ml. 90 ul cell slurry was dispensed per well in 96-well flat-bottomed plates with the recommended culture medium. The cells were incubated for 24 hours at 37° C. in 5% CO2 under humidified condition. The cells were then incubated with compounds at various concentrations for 72 hours in culture medium supplemented with 0.5% (v/v) FBS. Growth inhibition was assessed by assay of cellular ATP content using CellTiter-Glo reagent to each well. Luminesce was read on Envision. The inhibition rate (%)=(Max signal compound signal)/(Max signal Min signal)×100.

With `COc1cc(F)cc(OCCCN)c1-c1cc(Nc2cnc(C#N)cn2)n[nH]1` [Compound 3, 5-(5-(2-(3-Aminopropoxy)-4-fluoro-6-methoxyphenyl)-1H-pyrazol-3-ylamino)pyrazine-2-carbonitrile] the T/C value ([1]; 40 mg/kg, IV, twice a week) was −77%, the tumor growth inhibition ([1]; LY2606368 15 mg/kg, Compound 3 10, 20, 40 mg/kg, IV, twice a week) was “significant tumor growth inhibition in a dose-dependent manner” and the “efficacy compared with LY2606368 at MTD dose” value ([1]; MTD dose) was “more efficacious than LY2606368”. For the same compound, the “Percentage Remaining %” value ([2]; 0 min) was 100.00%, the “Percentage Remaining %” value ([2]; 5 min) was 96.98% and the “Percentage Remaining %” value ([2]; 15 min) was 94.32%. For the same compound, the “Percentage Remaining %” value ([2]; 30 min) was 65.38%, the “Percentage Remaining %” value ([2]; 45 min) was 77.05% and the “metabolic stability compared with LY2606368” value ([2]; human liver S9) was “more metabolic stable than LY2606368”. For the same compound, the half-life at 1 μM ([2]; human liver S9, 1 μM) was 2.76 h, the AUC(0-inf) ([3]; male, SD, 10 mg/kg) was 4640 ng·h/mL and the AUC(0-t) ([3]; male, SD, 10 mg/kg) was 4530 ng·h/mL. The MRT ([3]; male, SD, 10 mg/kg) was 2.8 h, the clearance ([3]; male, SD, 10 mg/kg) was 38.3 mL/min/kg and the half-life ([3]; male, SD, 10 mg/kg) was 3.8 h. The Vd ([3]; male, SD, 10 mg/kg, Vd) was 12.3 L/kg, the Vd ([3]; male, SD, 10 mg/kg, Vss) was 6.4 L/kg and the “half-life and exposure compared with LY2606368” value [3] was “longer half-life and higher exposure than LY2606368”. For the same compound, the T/C value ([4]; 40 mg/kg, iv, 2 times/week) was 31%, the “Tumor volume (X ± SD)” value ([4]; 40 mg/kg, iv, 2 times/week) was 407 ± 17 mm^3 and the “Tumor weight (X ± SD)” value ([4]; 40 mg/kg, iv, 2 times/week) was 272 ± 16 mg. The “efficacy compared with references at their MTD” value ([4]; mouse, in vivo) was “more efficacious than the reference LY-2606368”, the IC50 [5] was at most 1 nM and the Kp ([6]; female, Balb/c nude) was about 6. For the same compound, the half-life ([6]; female, Balb/c nude, half-life in blood) was 6.1 h, the half-life ([6]; female, Balb/c nude, half-life in tumor tissues) was 14 h and the “distribution into tumor tissues” value [6] was “rapidly distributed into tumor tissues”. For the same compound, the IC50 [7] was 50 to 100 nM.
